# Assay results: patent US10844077B2, “Thiazolyl-containing compounds for treating proliferative diseases” (Dana-Farber Cancer Institute, Inc., priority 2014, dated 2020)
# “And” between values parts separate entries of the source, which are not always exact repeats. Identical values can stand only once.
# Key:
# Test in all cases: KINATIV assay of compounds I-3 and I-9, lysate directly labeled with ATP-biotin probe (no GF)
# Format in all cases: cell-based
# [1] = biological target: kinases in BCWM.1 cells (Homo sapiens, UniProt Q5TCX8); conditions: MLK4; Lys2; 1 μM; no GF
# Description: (§1) The cells were harvested and lysed. […] Bound kinases were identified and quantitated by ACTIVX as described in Patricelli et al., Biochemistry, 2007, 46(2): 350-358. The compounds were tested in duplicates against duplicate or quadruplicate control samples.
# [2] = biological target: kinases in BCWM.1 cells (Homo sapiens, UniProt P00533); conditions: EGFR; Lys1; 1 μM; no GF
# Description: as §1
# [3] = biological target: kinases in BCWM.1 cells (Homo sapiens, UniProt Q16566); conditions: CaMK4; Lys2; 1 μM; no GF
# Description: as §1
# [4] = biological target: kinases in BCWM.1 cells (Homo sapiens, UniProt O14936); conditions: CASK; Lys1; 1 μM; no GF
# Description: as §1
# [5] = biological target: kinases in BCWM.1 cells (Homo sapiens, UniProt Q8IU85); conditions: CaMKld; Lys1; 1 μM; no GF
# Description: as §1
# [6] = biological target: kinases in BCWM.1 cells (Homo sapiens, UniProt O14757); conditions: CHK1; Lys2; 1 μM; no GF
# Description: as §1
# [7] = biological target: kinases in BCWM.1 cells (Homo sapiens, UniProt P31749); conditions: AKT1; ATP Loop; 1 μM; no GF
# Description: as §1
# [8] = biological target: kinases in BCWM.1 cells (Homo sapiens, UniProt P49840); conditions: GSK3A; Lys2; 1 μM; no GF
# Description: as §1
# [9] = biological target: kinases in BCWM.1 cells (Homo sapiens, UniProt Q00534); conditions: CDK6; Lys2; 1 μM; no GF
# Description: as §1
# [10] = biological target: kinases in BCWM.1 cells (Homo sapiens, UniProt Q9Y6E0); conditions: MST3; Lys2; 1 μM; no GF
# Description: as §1
# [11] = biological target: kinases in BCWM.1 cells (Homo sapiens, UniProt P54762); conditions: EphB1; Activation Loop; 1 μM; no GF
# Description: as §1
# [12] = biological target: kinases in BCWM.1 cells (Homo sapiens, UniProt Q15831); conditions: LKB1; Lys2; 1 μM; no GF
# Description: as §1
# [13] = biological target: kinases in BCWM.1 cells (Homo sapiens, UniProt Q8NB16); conditions: MLKL; Lys1; 1 μM; no GF
# Description: as §1
# [14] = biological target: kinases in BCWM.1 cells (Homo sapiens, UniProt Q96L34); conditions: MARK4; Lys2; 1 μM; no GF
# Description: as §1
# [15] = biological target: kinases in BCWM.1 cells (Homo sapiens, UniProt Q13188); conditions: MST2; Lys1; 1 μM; no GF
# Description: as §1
# [16] = biological target: kinases in BCWM.1 cells (Homo sapiens, UniProt P06239); conditions: LCK; Activation Loop; 1 μM; no GF
# Description: as §1
# [17] = biological target: kinases in BCWM.1 cells (Homo sapiens, UniProt P29323); conditions: EphB2; Activation Loop; 1 μM; no GF
# Description: as §1
# [18] = biological target: kinases in BCWM.1 cells (Homo sapiens, UniProt P07948); conditions: LYN; Lys1; 1 μM; no GF
# Description: as §1
# [19] = biological target: kinases in BCWM.1 cells (Homo sapiens, UniProt Q12851); conditions: GCK; Lys2; 1 μM; no GF
# Description: as §1
# [20] = biological target: kinases in BCWM.1 cells (Homo sapiens, UniProt P51451); conditions: BLK; Activation Loop; 1 μM; no GF
# Description: as §1
# [21] = biological target: kinases in BCWM.1 cells (Homo sapiens, UniProt Q14680); conditions: MELK; Lys2; 1 μM; no GF
# Description: as §1
# [22] = biological target: kinases in BCWM.1 cells (Homo sapiens, UniProt P78368); conditions: CK1g2; Lys2; 1 μM; no GF
# Description: as §1
# [23] = biological target: kinases in BCWM.1 cells (Homo sapiens, UniProt P46734); conditions: MAP2K3; Lys2; 1 μM; no GF
# Description: as §1
# [24] = biological target: kinases in BCWM.1 cells (Homo sapiens, UniProt Q13164); conditions: Erk5; Lys2; 1 μM; no GF
# Description: as §1
# [25] = biological target: kinases in BCWM.1 cells (Homo sapiens, UniProt O75582); conditions: MSK1 domain1; Lys2; 1 μM; no GF
# Description: as §1
# [26] = biological target: kinases in BCWM.1 cells (Homo sapiens, UniProt Q9UK32); conditions: RSK4 domain1; Lys2; 1 μM, 90 min; no GF
# Description: as §1
# [27] = biological target: kinases in BCWM.1 cells (Homo sapiens, UniProt O00506); conditions: YSK1; Lys1; 1 μM, 90 min; no GF
# Description: as §1
# [28] = biological target: kinases in BCWM.1 cells (Homo sapiens, UniProt O94806); conditions: PKD3; Lys1; 1 μM, 90 min; no GF
# Description: as §1
# [29] = biological target: kinases in BCWM.1 cells (Homo sapiens, UniProt P51956); conditions: NEK3; Activation Loop; 1 μM, 90 min; no GF
# Description: as §1
# Sequence of kinases in BCWM.1 cells (Homo sapiens, UniProt P54762) (P54762 18-984 limits assumed): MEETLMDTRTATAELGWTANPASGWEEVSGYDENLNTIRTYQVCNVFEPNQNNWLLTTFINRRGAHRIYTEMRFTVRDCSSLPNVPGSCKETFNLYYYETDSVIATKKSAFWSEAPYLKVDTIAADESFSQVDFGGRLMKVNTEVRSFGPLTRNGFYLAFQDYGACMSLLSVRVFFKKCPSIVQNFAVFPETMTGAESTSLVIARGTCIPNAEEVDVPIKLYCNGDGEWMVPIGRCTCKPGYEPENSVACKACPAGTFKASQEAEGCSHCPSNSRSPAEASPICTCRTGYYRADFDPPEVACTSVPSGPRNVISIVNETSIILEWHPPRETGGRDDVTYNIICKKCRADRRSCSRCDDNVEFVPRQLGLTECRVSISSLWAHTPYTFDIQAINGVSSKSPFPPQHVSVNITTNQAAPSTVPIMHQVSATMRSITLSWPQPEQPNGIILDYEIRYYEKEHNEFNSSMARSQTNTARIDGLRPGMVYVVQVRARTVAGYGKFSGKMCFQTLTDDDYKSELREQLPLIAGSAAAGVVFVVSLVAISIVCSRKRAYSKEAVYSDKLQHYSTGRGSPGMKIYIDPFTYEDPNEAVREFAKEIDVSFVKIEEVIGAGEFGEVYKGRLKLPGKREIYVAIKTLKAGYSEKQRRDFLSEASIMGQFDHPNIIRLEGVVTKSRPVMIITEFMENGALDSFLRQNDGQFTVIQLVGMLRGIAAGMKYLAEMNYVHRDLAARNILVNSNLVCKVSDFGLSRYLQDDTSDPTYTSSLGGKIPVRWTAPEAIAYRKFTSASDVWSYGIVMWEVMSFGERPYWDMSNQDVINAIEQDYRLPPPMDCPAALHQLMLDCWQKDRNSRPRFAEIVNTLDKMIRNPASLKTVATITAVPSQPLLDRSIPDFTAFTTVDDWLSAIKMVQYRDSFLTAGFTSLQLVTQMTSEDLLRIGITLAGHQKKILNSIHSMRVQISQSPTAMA
# Sequence of kinases in BCWM.1 cells (Homo sapiens, UniProt P00533) (P00533 25-1210 limits assumed): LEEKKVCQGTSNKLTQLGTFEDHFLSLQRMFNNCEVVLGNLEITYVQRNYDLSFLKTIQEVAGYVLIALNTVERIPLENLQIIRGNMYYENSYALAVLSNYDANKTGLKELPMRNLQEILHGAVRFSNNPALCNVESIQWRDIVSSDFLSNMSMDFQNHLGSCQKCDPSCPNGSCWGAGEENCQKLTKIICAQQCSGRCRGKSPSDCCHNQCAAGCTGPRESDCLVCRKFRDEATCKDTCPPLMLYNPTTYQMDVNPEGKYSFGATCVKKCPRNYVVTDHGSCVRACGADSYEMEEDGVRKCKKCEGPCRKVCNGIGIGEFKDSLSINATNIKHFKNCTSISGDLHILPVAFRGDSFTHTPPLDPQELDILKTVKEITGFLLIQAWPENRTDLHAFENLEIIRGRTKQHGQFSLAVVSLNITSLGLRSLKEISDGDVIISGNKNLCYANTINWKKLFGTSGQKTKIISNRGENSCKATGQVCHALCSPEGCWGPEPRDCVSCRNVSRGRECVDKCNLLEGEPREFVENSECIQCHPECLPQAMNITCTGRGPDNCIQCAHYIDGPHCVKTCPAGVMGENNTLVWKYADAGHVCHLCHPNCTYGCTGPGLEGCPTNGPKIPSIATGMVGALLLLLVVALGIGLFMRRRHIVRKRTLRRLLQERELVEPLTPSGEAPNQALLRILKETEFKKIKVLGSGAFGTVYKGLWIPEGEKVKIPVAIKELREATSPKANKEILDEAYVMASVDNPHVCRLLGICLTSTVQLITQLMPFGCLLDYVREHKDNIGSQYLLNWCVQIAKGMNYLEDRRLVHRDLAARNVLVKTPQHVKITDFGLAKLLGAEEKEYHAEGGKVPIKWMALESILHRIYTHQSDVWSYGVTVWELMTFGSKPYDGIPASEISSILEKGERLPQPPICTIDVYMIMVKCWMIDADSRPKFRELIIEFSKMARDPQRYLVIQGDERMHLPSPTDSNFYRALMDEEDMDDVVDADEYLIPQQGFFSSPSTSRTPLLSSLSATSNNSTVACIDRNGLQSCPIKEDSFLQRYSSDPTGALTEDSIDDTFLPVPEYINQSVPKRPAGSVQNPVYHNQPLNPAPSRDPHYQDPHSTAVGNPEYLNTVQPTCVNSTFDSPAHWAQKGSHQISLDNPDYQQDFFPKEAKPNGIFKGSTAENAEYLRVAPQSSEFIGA
# Sequence of kinases in BCWM.1 cells (Homo sapiens, UniProt P49840) (P49840 2-483 limits assumed): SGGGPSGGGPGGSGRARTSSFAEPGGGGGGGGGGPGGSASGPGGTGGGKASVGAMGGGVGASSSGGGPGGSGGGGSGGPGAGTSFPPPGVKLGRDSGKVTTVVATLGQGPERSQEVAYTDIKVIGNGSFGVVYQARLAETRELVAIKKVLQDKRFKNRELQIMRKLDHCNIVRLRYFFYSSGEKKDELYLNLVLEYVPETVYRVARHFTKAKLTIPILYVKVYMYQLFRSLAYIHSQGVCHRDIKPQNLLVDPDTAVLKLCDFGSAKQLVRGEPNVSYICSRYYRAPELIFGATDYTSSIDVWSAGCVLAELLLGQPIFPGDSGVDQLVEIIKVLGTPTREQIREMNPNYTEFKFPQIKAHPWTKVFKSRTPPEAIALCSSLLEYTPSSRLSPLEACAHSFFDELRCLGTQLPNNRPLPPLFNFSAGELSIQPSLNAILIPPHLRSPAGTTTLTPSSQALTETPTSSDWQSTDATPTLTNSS
# Sequence of kinases in BCWM.1 cells (Homo sapiens, UniProt Q13164) (Q13164 2-816 limits assumed): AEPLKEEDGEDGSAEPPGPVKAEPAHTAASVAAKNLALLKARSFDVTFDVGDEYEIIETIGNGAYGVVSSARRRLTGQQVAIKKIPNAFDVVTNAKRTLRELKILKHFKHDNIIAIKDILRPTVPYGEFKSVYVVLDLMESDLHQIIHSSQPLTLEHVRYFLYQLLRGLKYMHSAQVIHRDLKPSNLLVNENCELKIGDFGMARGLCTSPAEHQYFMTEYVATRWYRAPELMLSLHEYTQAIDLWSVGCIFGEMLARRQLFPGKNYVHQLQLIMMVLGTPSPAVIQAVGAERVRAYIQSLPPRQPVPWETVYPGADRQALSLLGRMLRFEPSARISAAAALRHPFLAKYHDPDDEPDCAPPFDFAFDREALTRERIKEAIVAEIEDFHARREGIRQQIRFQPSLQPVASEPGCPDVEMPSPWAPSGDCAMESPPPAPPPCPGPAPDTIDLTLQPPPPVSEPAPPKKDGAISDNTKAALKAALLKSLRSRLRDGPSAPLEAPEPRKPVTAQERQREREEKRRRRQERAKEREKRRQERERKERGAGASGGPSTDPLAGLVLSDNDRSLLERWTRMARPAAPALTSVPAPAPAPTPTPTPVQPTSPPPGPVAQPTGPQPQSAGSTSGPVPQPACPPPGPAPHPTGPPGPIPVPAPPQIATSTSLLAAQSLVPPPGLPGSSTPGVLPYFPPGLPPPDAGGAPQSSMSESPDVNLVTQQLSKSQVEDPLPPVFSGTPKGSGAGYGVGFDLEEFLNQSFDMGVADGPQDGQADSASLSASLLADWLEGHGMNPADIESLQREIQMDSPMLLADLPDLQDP
# Sequence of kinases in BCWM.1 cells (Homo sapiens, UniProt P29323) (P29323 19-1055 limits assumed): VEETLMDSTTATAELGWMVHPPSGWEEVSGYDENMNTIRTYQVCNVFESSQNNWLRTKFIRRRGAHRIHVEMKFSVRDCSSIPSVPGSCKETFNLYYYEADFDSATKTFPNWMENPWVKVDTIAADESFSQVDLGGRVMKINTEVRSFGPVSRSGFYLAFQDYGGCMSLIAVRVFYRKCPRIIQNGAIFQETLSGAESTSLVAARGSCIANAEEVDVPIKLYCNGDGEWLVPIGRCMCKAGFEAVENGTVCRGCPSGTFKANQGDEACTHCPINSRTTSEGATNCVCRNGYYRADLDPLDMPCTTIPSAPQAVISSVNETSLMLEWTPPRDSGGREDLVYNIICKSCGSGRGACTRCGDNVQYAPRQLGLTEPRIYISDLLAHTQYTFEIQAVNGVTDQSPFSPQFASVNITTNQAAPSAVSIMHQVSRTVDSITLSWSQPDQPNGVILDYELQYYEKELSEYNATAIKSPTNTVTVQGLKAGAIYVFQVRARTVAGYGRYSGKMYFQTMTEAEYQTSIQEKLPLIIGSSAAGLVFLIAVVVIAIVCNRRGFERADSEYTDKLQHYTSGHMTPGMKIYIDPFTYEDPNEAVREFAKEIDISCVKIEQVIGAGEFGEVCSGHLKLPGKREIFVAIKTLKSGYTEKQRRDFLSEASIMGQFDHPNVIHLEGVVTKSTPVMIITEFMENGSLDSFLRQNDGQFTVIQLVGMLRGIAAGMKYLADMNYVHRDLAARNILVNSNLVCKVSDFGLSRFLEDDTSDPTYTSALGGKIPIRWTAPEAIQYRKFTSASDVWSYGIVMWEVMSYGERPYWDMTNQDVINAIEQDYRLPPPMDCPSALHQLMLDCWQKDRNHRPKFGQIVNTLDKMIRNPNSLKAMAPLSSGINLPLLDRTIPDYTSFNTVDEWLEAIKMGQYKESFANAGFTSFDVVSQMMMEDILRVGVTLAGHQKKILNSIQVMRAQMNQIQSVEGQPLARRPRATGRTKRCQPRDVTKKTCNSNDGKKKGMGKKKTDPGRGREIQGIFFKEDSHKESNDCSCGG
# Sequence of kinases in BCWM.1 cells (Homo sapiens, UniProt P06239) (P06239 2-509 limits assumed): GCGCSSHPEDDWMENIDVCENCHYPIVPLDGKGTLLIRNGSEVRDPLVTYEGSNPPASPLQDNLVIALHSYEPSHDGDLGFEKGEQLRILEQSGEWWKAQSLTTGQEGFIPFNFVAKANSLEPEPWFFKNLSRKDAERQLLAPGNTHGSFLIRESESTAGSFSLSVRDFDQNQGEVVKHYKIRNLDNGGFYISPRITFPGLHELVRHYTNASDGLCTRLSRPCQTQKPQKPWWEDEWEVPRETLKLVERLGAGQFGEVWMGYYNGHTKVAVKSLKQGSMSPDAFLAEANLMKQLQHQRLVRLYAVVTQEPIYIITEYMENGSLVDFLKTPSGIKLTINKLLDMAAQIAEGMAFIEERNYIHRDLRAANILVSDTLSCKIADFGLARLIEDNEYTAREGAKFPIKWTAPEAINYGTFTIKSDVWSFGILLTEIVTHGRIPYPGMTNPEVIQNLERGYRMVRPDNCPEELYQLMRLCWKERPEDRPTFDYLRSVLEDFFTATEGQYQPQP
smiles,measurement,setting,value
C=CC(=O)N1CC[C@H](Nc2nccc(Nc3ncc(C(=O)Nc4c(C)cccc4C)s3)n2)C1 [Example I-3],% change of MS signal compared to control sample,[1],−3.8% and −11.8%
same,% change of MS signal compared to control sample,[2],20% and 17%
same,% change of MS signal compared to control sample,[3],6.8% and −0.1%
same,% change of MS signal compared to control sample,[4],−1% and 0.5%
same,% change of MS signal compared to control sample,[5],−0.4% and −5%
same,% change of MS signal compared to control sample,[6],9.7% and 5.6%
same,% change of MS signal compared to control sample,[7],−20.4% and −21.9%
same,% change of MS signal compared to control sample,[8],3.5% and 9%
same,% change of MS signal compared to control sample,[9],12.4% and 3.6%
same,% change of MS signal compared to control sample,[10],−2% and −3.8%
same,% change of MS signal compared to control sample,[11],92.9% and 95.7%
same,% change of MS signal compared to control sample,[12],−11.2% and −8.7%
same,% change of MS signal compared to control sample,[13],−5.6% and −4.6%
same,% change of MS signal compared to control sample,[14],−8.5% and −8.7%
same,% change of MS signal compared to control sample,[15],−12.1% and −18%
same,% change of MS signal compared to control sample,[16],92.6% and 92.7%
same,% change of MS signal compared to control sample,[17],91% and 91.6%
same,% change of MS signal compared to control sample,[18],>98%
same,% change of MS signal compared to control sample,[19],18.1% and 17.8%
same,% change of MS signal compared to control sample,[20],>96%
same,% change of MS signal compared to control sample,[21],−12.1% and −10.6%
same,% change of MS signal compared to control sample,[22],−3.7% and −4.5%
same,% change of MS signal compared to control sample,[23],15.6% and 5.8%
same,% change of MS signal compared to control sample,[24],3% and 8.3%
same,% change of MS signal compared to control sample,[25],−2.8% and −9%
CCC(=O)N1CC[C@H](Nc2nccc(Nc3ncc(C(=O)Nc4c(C)cccc4C)s3)n2)C1 [Example I-9],% change of MS signal compared to control sample,[26],9.1%
same,% change of MS signal compared to control sample,[27],−11.5%
same,% change of MS signal compared to control sample,[28],−15.2%
same,% change of MS signal compared to control sample,[29],−21.2%
